This note sets out measurements from patent US12110293B2, “Substituted triazolo quinoxaline derivatives” (GRÜNENTHAL GMBH, priority 2018, dated 2024).

This test has as its target T1, glucocorticoid receptor (Homo sapiens, UniProt P04150).
T1 construct: expressed in transfected cells
T1 sequence (P04150 524-758 limits assumed): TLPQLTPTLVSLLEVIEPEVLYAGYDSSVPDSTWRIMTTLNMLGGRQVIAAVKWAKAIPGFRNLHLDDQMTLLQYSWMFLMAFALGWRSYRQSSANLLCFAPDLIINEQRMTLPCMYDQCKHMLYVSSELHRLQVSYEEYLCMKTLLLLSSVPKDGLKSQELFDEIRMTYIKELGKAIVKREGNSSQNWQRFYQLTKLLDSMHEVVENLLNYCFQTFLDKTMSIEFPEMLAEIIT
Briefly: Agonistic mode of action on the glucocorticoid receptor (CHO-Gal4/GR luciferase reporter cell line). It counts as cell-based. Particulars: range class observed in the agonistic assay or the antagonistic assay (CHO-Gal4/GR reporter cells); table does not say which mode applies per example. In short, it runs like this: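 Agonism measured as dose-dependent luciferase luminescence (FLIPR Tetra) from a GAL4-UAS reporter driven by GAL4 DBD fused to GR ligand-binding domain in stable CHO cells. Eight half-log doses, 10 μM to 0.003 μM final in 0.5% DMSO, quadruplicate, on cells seeded 24 h earlier at 5000/well; EC50 derived.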
(In a reporter assay the amount or activity of a reporter protein is the signal.)

For `Cc1nnc2n1-c1c(cc(F)c(-c3cccc4nn(C)cc34)c1F)NC2(C)C` [Example 222, 7,9-Difluoro-1,4,4-trimethyl-8-(2-methyl-2H-indazol-4-yl)-5H-[1,2,4]triazolo[4,3-a]quinoxaline], the IC50 or EC50 (agonist or antagonist mode not specified) lay in the range of 1000 to 15000 nM.
As for `Cc1c(-c2cc(F)cc3c2cnn3CC(F)F)c(OC(F)(F)F)cc2c1-n1c(C)nnc1C(C)(C)N2` [Example 469, 8-[1-(2,2-Difluoro-ethyl)-6-fluoro-1H-indazol-4-yl]-1,4,4,9-tetramethyl-7-(trifluoromethyloxy)-5H-[1,2,4]triazolo[4,3-a]quinoxaline], the figure is 100 to 1000 nM.
For the compound `CC#Cc1c[nH]c2c(-c3c(F)cc4c(c3F)-n3c(CC)nnc3C(C)(C)N4)cccc12` [Example 13, 1-ethyl-7,9-difluoro-4,4-dimethyl-8-(3-(prop-1-yn-1-yl)-1H-indol-7-yl)-4,5-dihydro-[1,2,4]triazolo[4,3-a]quinoxaline], the IC50 or EC50 (agonist or antagonist mode not specified) lay within 100 to 1000 nM.
As for `Cc1nnc2n1-c1c(cc(Cl)c(-c3cccc4c3ccn4S(C)(=O)=O)c1F)NC2(C)C` [Example 284, 7-Chloro-9-fluoro-1,4,4-trimethyl-8-(1-methylsulfonyl-1H-indol-4-yl)-5H-[1,2,4]triazolo[4,3-a]quinoxaline], the figure is 100 to 1000 nM; as for `Cc1nnc2n1-c1c(cc(OC(F)F)c(-c3cccc4c3ccn4CC(F)F)c1F)NC2(C)C` [Example 393, 8-[1-(2,2-Difluoro-ethyl)-1H-indol-4-yl]-7-(difluoro-methoxy)-9-fluoro-1,4,4-trimethyl-5H-[1,2,4]triazolo [4,3-a]quinoxaline], 1000 to 15000 nM.
With `Cc1nnc2n1-c1c(cc(F)c(-c3c(F)ccc4[nH]ccc34)c1F)NC2(C)C` [Example 214, 7,9-Difluoro-8-(5-fluoro-1H-indol-4-yl)-1,4,4-trimethyl-5H-[1,2,4]triazolo[4,3-a]quinoxaline], the IC50 or EC50 (agonist or antagonist mode not specified) is < 100 nM.
Under `CCS(=O)(=O)n1ccc2c(-c3c(OC)cc4c(c3C(F)(F)F)-n3c(C)nnc3C(C)(C)N4)cccc21` [Example 371, 8-[1-(Ethylsulfonyl)-1H-indol-4-yl]-7-methoxy-1,4,4-trimethyl-9-(trifluoromethyl)-5H-[1,2,4]triazolo[4,3-a]quinoxaline] stands 100 to 1000 nM; under `Cc1cc2c(c(F)c1-c1cc(F)cc3c1ccn3S(C)(=O)=O)-n1c(C)nnc1C(C)(C)N2` [Example 332, 9-Fluoro-8-(6-fluoro-1-methylsulfonyl-1H-indol-4-yl)-1,4,4,7-tetramethyl-5H-[1,2,4] triazolo[4,3-a]quinoxaline], 1000 to 15000 nM; under `Cc1c[nH]c2c(-c3c(C(F)F)cc4c(c3F)-n3c(C)nnc3C(C)(C)N4)cccc12` [Example 306, 7-(Difluoro-methyl)-9-fluoro-1,4,4-trimethyl-8-(3-methyl-1H-indol-7-yl)-5H-[1,2,4]triazolo[4,3-a]quinoxaline], 100 to 1000 nM.
Under `CC#CCc1nnc2n1-c1c(cc(F)c(-c3cc(F)cc4c(C)c[nH]c34)c1F)NC2(C)C` [Example 69, 1-(but-2-yn-1-yl)-7,9-difluoro-8-(5-fluoro-3-methyl-1H-indol-7-yl)-4,4-dimethyl-4,5-dihydro-[1,2,4]triazolo[4,3-a]quinoxaline] stands < 100 nM.
Under `COc1cc2c(c(C(F)(F)F)c1-c1cccc3c(C)c[nH]c13)-n1c(C)nnc1C(C)(C)N2` [Example 357, 7-Methoxy-1,4,4-trimethyl-8-(3-methyl-1H-indol-7-yl)-9-(trifluoromethyl)-5H-[1,2,4]triazolo[4,3-a]quinoxaline] stands < 100 nM.
The compound `Cc1nnc2n1-c1c(cc(F)c(-c3cc(F)cc4c3cnn4S(C)(=O)=O)c1C(F)F)NC2(C)C` [Example 346, 9-(Difluoro-methyl)-7-fluoro-8-(6-fluoro-1-methylsulfonyl-1H-indazol-4-yl)-1,4,4-trimethyl-5H-[1,2,4]triazolo[4,3-a]quinoxaline] had an IC50 or EC50 (agonist or antagonist mode not specified) of 100 to 1000 nM.
Under `COCCn1ccc2c(-c3c(OC(F)(F)F)cc4c(c3C)-n3c(C)nnc3C(C)(C)N4)cccc21` [Example 460, 8-[1-(2-Methoxy-ethyl)-1H-indol-4-yl]-1,4,4,9-tetramethyl-7-(trifluoromethyloxy)-5H-[1,2,4]triazolo[4,3-a]quinoxaline] stands 100 to 1000 nM; under `Cc1c(-c2cccc3c2ccn3S(C)(=O)=O)ccc2c1-n1c(C)nnc1C(C)(C)N2` [Example 450, 1,4,4,9-tetramethyl-8-(1-(methylsulfonyl)-1H-indol-4-yl)-4,5-dihydro-[1,2,4]triazolo[4,3-a]quinoxaline], 100 to 1000 nM.
As for `Cc1nnc2n1-c1c(cc(F)c(-c3ccc(Cl)c4[nH]ccc34)c1F)NC2(C)C` [Example 529, 8-(7-Chloro-1H-indol-4-yl)-7,9-difluoro-1,4,4-trimethyl-5H-[1,2,4]triazolo[4,3-a]quinoxaline], the figure is 100 to 1000 nM.
As for `CC#Cc1c[nH]c2c(-c3c(F)cc4c(c3C)-n3c(CO)nnc3C(C)(C)N4)cc(F)cc12` [Example 77, (7-fluoro-8-(5-fluoro-3-(prop-1-yn-1-yl)-1H-indol-7-yl)-4,4,9-trimethyl-4,5-dihydro-[1,2,4]triazolo[4,3-a]quinoxalin-1-yl)methanol], the figure is 100 to 1000 nM.
For `COc1cc2c(c(F)c1-c1cc(F)cc3c(C)c[nH]c13)-n1c(C)nnc1C(C)(C)N2` [Example 251, 9-Fluoro-8-(5-fluoro-3-methyl-1H-indol-7-yl)-7-methoxy-1,4,4-trimethyl-5H-[1,2,4]triazolo[4,3-a]quinoxaline], the IC50 or EC50 (agonist or antagonist mode not specified) fell in the range of 100 to 1000 nM.
As for `COc1c(-c2cc(F)cc3c(C4CC4)c[nH]c23)c(F)cc2c1-n1c(C)nnc1C(C)(C)N2` [Example 483, 8-(3-Cyclopropyl-5-fluoro-1H-indol-7-yl)-7-fluoro-9-methoxy-1,4,4-trimethyl-5H-[1,2,4]triazolo[4,3-a] quinoxaline], the figure is < 100 nM; as for `Cc1nnc2n1-c1c(cc(F)c(-c3ccc(Cl)c4[nH]ccc34)c1C(F)(F)F)NC2(C)C` [Example 530, 8-(7-Chloro-1H-indol-4-yl)-7-fluoro-1,4,4-trimethyl-9-(trifluoromethyl)-5H-[1,2,4] triazolo[4,3-a]quinoxaline], 100 to 1000 nM; as for `Cc1nnc2n1-c1c(cc(F)c(-c3cc(F)cc4cc[nH]c34)c1C(F)(F)F)NC2(C)C` [Example 516, 7-Fluoro-8-(5-fluoro-1H-indol-7-yl)-1,4,4-trimethyl-9-(trifluoro-methyl)-5H-[1,2,4]triazolo[4,3-a] quinoxaline], 100 to 1000 nM.
`Cc1nnc2n1-c1c(cc(F)c(-c3cccc4c3ccn4S(=O)(=O)C(C)C)c1C(F)F)NC2(C)C` [Example 400, 9-(Difluoro-methyl)-7-fluoro-8-[1-(isopropylsulfonyl)-1H-indol-4-yl]-1,4,4-trimethyl-5H-[1,2,4]triazolo [4,3-a]quinoxaline] returned an IC50 or EC50 (agonist or antagonist mode not specified) of 1000 to 15000 nM.
The compound `COc1cc2c(c(F)c1-c1cc(F)cc3c1ccn3S(C)(=O)=O)-n1c(C)nnc1C(C)(C)N2` [Example 255, 9-Fluoro-8-(6-fluoro-1-methylsulfonyl-1H-indol-4-yl)-7-methoxy-1,4,4-trimethyl-5H-[1,2,4]triazolo[4,3-a]quinoxaline] gave an IC50 or EC50 (agonist or antagonist mode not specified) of 1000 to 15000 nM.
Under `COCCn1ccc2c(-c3c(F)cc4c(c3OC)-n3c(C)nnc3C(C)(C)N4)cccc21` [Example 281, 7-Fluoro-9-methoxy-8-[1-(2-methoxy-ethyl)-1H-indol-4-yl]-1,4,4-trimethyl-5H-[1,2,4]triazolo[4,3-a]quinoxaline] stands 100 to 1000 nM.
Under `Cc1nnc2n1-c1c(cc(F)c(-c3cccc4c(C5CCC5)c[nH]c34)c1Cl)NC2(C)C` [Example 41, 9-chloro-8-(3-cyclobutyl-1H-indol-7-yl)-7-fluoro-1,4,4-trimethyl-4,5-dihydro-[1,2,4]triazolo[4,3-a]quinoxaline] stands < 100 nM.
Consider `Cc1nnc2n1-c1c(cc(F)c(-c3cc(Cl)cc4[nH]ccc34)c1F)NC2(C)C` [Example 511, 8-(6-Chloro-1H-indol-4-yl)-7,9-difluoro-l,4,4-trimethyl-5H-[1,2,4]triazolo[4,3-a]quinoxaline], for which the IC50 or EC50 (agonist or antagonist mode not specified) was < 100 nM.
For the compound `Cc1c(-c2cc(F)cc3c2ccn3S(C)(=O)=O)c(OC(F)F)cc2c1-n1c(C)nnc1C(C)(C)N2` [Example 335, 7-(Difluoro-methoxy)-8-(6-fluoro-1-methylsulfonyl-1H-indol-4-yl)-1,4,4,9-tetramethyl-5H-[1,2,4] triazolo[4,3-a]quinoxaline], the IC50 or EC50 (agonist or antagonist mode not specified) lay within 100 to 1000 nM.
`Cc1nnc2n1-c1c(cc(F)c(-c3cc(F)cc4cc[nH]c34)c1C(F)F)NC2(C)C` [Example 515, 9-(Difluoro-methyl)-7-fluoro-8-(5-fluoro-1H-indol-7-yl)-1,4,4-trimethyl-5H-[1,2,4]triazolo[4,3-a] quinoxaline] displayed an IC50 or EC50 (agonist or antagonist mode not specified) of 100 to 1000 nM.
As for `COc1cc2c(c(C(F)(F)F)c1-c1cc(F)cc3c1ccn3C)-n1c(C)nnc1C(C)(C)N2` [Example 517, 8-(6-Fluoro-1-methyl-1H-indol-4-yl)-7-methoxy-1,4,4-trimethyl-9-(trifluoromethyl)-5H-[1,2,4]triazolo [4,3-a]quinoxaline], the figure is 100 to 1000 nM.
